Among the data in PubChem BioAssay AID206 (DTP/NCI, 2004) are T/C values, retold here.

The experiment has as its system nude mice, HT29 intrarenal xenograft, tumor weight T/C. Put plainly: NCI In Vivo Anticancer Drug Screen. Data for tumor model HT29;CX-1 Human Adenocarcinoma (MER+) (intrarenal inoculation) in NU/NU Swiss (nude) mice. As to conditions: endpoint: mean tumor weight change, higher = larger tumour. In outline:
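Mice with transplanted tumors are dosed with compound while controls get vehicle only. Survival or tumor burden is then assessed per group, and the treated value is expressed relative to control.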

The mark [1] stands for this setting: dose: 100.0 mg/kg/injection, schedule: Q01DX010 (sc), vehicle: saline with Tween-80.
[2] abbreviates: dose: 200.0 mg/kg/injection, schedule: Q01DX010 (sc), vehicle: Klucel (hydroxypropylcellulose) (HPC).

Values joined by “and” are separate entries in the source; they are usually repeats but may differ in a detail not shown here. Equal values may be shown once. Results filed as inconclusive are left out.

In the case of `OCCCN1CCCCC1CO` (stereo not drawn), the T/C was 106 % of control (dose: 225.0 mg/kg/injection, schedule: Q04DX004 (sc), vehicle: saline); 89 % of control (dose: 450.0 mg/kg/injection, schedule: Q04DX004 (sc), vehicle: saline); 92 % of control (dose: 900.0 mg/kg/injection, schedule: Q04DX004 (sc), vehicle: saline).
With `O=Cc1ccc(C(Cl)(Cl)Cl)cc1`, the T/C by setting is: under setting [1], 121 % of control; (dose: 400.0 mg/kg/injection, schedule: Q01DX010 (sc), vehicle: saline with Tween-80) 107 % of control.
Regarding `O=C1SC(c2ccccc2)=S=C1c1ccccc1`, the T/C (dose: 300.0 mg/kg/injection, schedule: Q04DX004 (sc), vehicle: saline with Tween-80) is 102 % of control and the T/C (dose: 1200.0 mg/kg/injection, schedule: Q04DX004 (sc), vehicle: saline with Tween-80) was 90 % of control.
As for `CCCCCC(O)C1C(=O)OC(C)C(O)/C=C/C=C/C=C/C=C\C=C(\C)C(O)CC(O)CC(O)CC(O)CC(O)CC(O)CC1O` (stereo not drawn), the T/C reads like this: (dose: 37.5 mg/kg/injection, schedule: Q04DX004 (sc), vehicle: distilled water + alcohol) 73 % of control; (dose: 75.0 mg/kg/injection, schedule: Q04DX004 (sc), vehicle: distilled water + alcohol) 110 % of control; (dose: 150.0 mg/kg/injection, schedule: Q04DX004 (sc), vehicle: distilled water + alcohol) 107 % of control.
On to `COc1ccc(OC)c(Cc2cnc3nc(N)nc(N)c3c2C)c1`, for which the T/C by setting is: (dose: 150.0 mg/kg/injection, schedule: Q04DX004 (sc), vehicle: water) 116 % of control; (dose: 300.0 mg/kg/injection, schedule: Q04DX004 (sc), vehicle: water) 54 % of control.
Take `O=C(Nc1ccccc1C(=O)O)c1cc([N+](=O)[O-])cc([N+](=O)[O-])c1`: the T/C is 91 % of control (dose: 50.0 mg/kg/injection, schedule: Q04DX004 (sc), vehicle: saline with Tween-80); 120 % of control (dose: 100.0 mg/kg/injection, schedule: Q04DX004 (sc), vehicle: saline with Tween-80); 119 % of control (dose: 200.0 mg/kg/injection, schedule: Q04DX004 (sc), vehicle: saline with Tween-80).
Consider `COC1CC(C)C(OC)c2cc(O)cc(c2O)NC(=O)/C(C)=C/C=C\C(C)C(OC(N)=O)/C(C)=C\C(C)C1OC` (stereo not drawn), for which the T/C (dose: 50.0 mg/kg/injection, schedule: Q04DX004 (sc), vehicle: saline + alcohol) was 113 % of control.
As to `CC1(C)OCC(CO)(Nc2nc(N3CC3)nc(N3CC3)n2)CO1`, under “dose: 2.0 mg/kg/injection, schedule: Q04DX004 (sc), vehicle: saline”, the T/C was 76 % of control.
With `CCOC(=O)c1c[nH]c2oc(/C=N/N3CC(CN4CCOCC4)OC3=O)cc2c1=O` (stereo not drawn), the T/C is 69 % of control (dose: 50.0 mg/kg/injection, schedule: Q01DX010 (sc), vehicle: saline); 124 % of control (dose: 100.0 mg/kg/injection, schedule: Q01DX010 (sc), vehicle: saline); 86 % of control (dose: 200.0 mg/kg/injection, schedule: Q01DX010 (sc), vehicle: saline).
Take `Cc1ccc(S(=O)(=O)NC(=S)S)cc1`: the T/C is 110 % of control under setting [1] and 191 % of control (dose: 200.0 mg/kg/injection, schedule: Q01DX010 (sc), vehicle: saline with Tween-80).
As for `CN(C)c1ccc2c(N(C)C)cc(N(C)C)nc2c1`, the T/C (dose: 75.0 mg/kg/injection, schedule: Q04DX004 (sc), vehicle: Klucel (hydroxypropylcellulose) (HPC)) was 97 % of control.
For the compound `CCC1OCC(C(Cl)CCl)O1` (stereo not drawn), the T/C is 100 % of control (dose: 37.5 mg/kg/injection, schedule: Q01DX014 (sc), vehicle: Klucel (hydroxypropylcellulose) (HPC)); 58 % of control (dose: 37.5 mg/kg/injection, schedule: Q04DX014 (sc), vehicle: Klucel (hydroxypropylcellulose) (HPC)); 193 % of control (dose: 75.0 mg/kg/injection, schedule: Q01DX014 (sc), vehicle: Klucel (hydroxypropylcellulose) (HPC)); 30 % of control (dose: 75.0 mg/kg/injection, schedule: Q04DX014 (sc), vehicle: Klucel (hydroxypropylcellulose) (HPC)); 86 % of control (dose: 150.0 mg/kg/injection, schedule: Q01DX014 (sc), vehicle: Klucel (hydroxypropylcellulose) (HPC)); 1 % of control (dose: 150.0 mg/kg/injection, schedule: Q04DX014 (sc), vehicle: Klucel (hydroxypropylcellulose) (HPC)). Moreover, the T/C is, setting by setting: (dose: 300.0 mg/kg/injection, schedule: Q01DX014 (sc), vehicle: Klucel (hydroxypropylcellulose) (HPC)) 122 % of control; (dose: 300.0 mg/kg/injection, schedule: Q04DX004 (sc), vehicle: other) 83 % of control; (dose: 300.0 mg/kg/injection, schedule: Q04DX014 (sc), vehicle: Klucel (hydroxypropylcellulose) (HPC)) -30 % of control; (dose: 600.0 mg/kg/injection, schedule: Q01DX014 (sc), vehicle: Klucel (hydroxypropylcellulose) (HPC)) 25 % of control; (dose: 600.0 mg/kg/injection, schedule: Q04DX004 (sc), vehicle: other) 21 % of control; (dose: 600.0 mg/kg/injection, schedule: Q04DX014 (sc), vehicle: Klucel (hydroxypropylcellulose) (HPC)) -99 % of control.
On to `CC(C)=CCNc1ncnc2c1ncn2C1OC(CO)C(O)C1O` (stereo not drawn), for which the T/C (dose: 400.0 mg/kg/injection, schedule: Q04DX004 (sc), vehicle: suspension in saline) is 62 % of control.
For `O=C1CN(CN2CCOCC2)C(=O)CN1CN1CCOCC1`, the T/C is, setting by setting: (dose: 25.0 mg/kg/injection, schedule: Q01DX010 (sc), vehicle: suspension in saline) 53 % of control; (dose: 50.0 mg/kg/injection, schedule: Q01DX010 (sc), vehicle: suspension in saline) 122 % of control; (dose: 100.0 mg/kg/injection, schedule: Q01DX010 (sc), vehicle: suspension in saline) 114 % of control; (dose: 200.0 mg/kg/injection, schedule: Q01DX010 (sc), vehicle: suspension in saline) 69 % of control.
As for `CSc1ncnc2c1ncn2C1OC(CO)C(O)C1O` (stereo not drawn), the T/C is 74 % of control and 77 % of control and 80 % of control (dose: 37.5 mg/kg/injection, schedule: Q04DX004 (sc), vehicle: saline + alcohol); 154 % of control (dose: 125.0 mg/kg/injection, schedule: Q04DX004 (sc), vehicle: saline + alcohol); 65 % of control (dose: 175.0 mg/kg/injection, schedule: Q04DX004 (sc), vehicle: saline + alcohol).
In the case of `C[C@H]1C[C@@H]2[C@H]([C@@H](O)C[C@@]3(C)[C@H]2CC[C@]3(O)C(=O)CO)[C@@]2(C)C=CC(=O)C=C12`, the T/C (dose: 200.0 mg/kg/injection, schedule: Q04DX004 (sc), vehicle: Klucel (hydroxypropylcellulose) (HPC)) is 69 % of control.
Turning to `Cc1c(N)nc(C(CC(N)=O)NCC(N)C(N)=O)nc1C(=O)NC(C(=O)NC(C)C(O)CC(=O)NC(C(=O)NC(OC1OC(C)C(N)C(O)C1O)C(O)c1nc(-c2nc(C(=O)NCCCC(N)CC(=O)NCCCNCCCCN)cs2)cs1)C(C)O)C(OC1OC(CO)C(O)C(O)C1OC1OC(CO)C(O)C(OC(N)=O)C1O)c1cnc[nH]1` (stereo not drawn), the T/C (dose: 8.0 mg/kg/injection, schedule: Q04DX004 (sc), vehicle: saline) is 17 % of control and the T/C (dose: 16.0 mg/kg/injection, schedule: Q04DX004 (sc), vehicle: saline) is 21 % of control.
For `Nc1ccccc1N`, the T/C runs as follows: (dose: 100.0 mg/kg/injection, schedule: Q01DX010 (sc), vehicle: Klucel (hydroxypropylcellulose) (HPC)) 206 % of control; under setting [2], 115 % of control.
On to `CC1=CC2C(O)(CC(CO)=CC3C4C(C)(C)C4(OC(=O)c4ccccc4)C(OC(=O)c4ccccc4)C(C)C32O)C1=O` (stereo not drawn), for which the T/C (dose: 5.0 mg/kg/injection, schedule: Q04DX004 (sc), vehicle: saline with Tween-80) was 43 % of control.
Take `C=C(NC(=O)C(=C)NC(=O)c1csc(C2=NC3c4csc(n4)C4NC(=O)c5csc(n5)C(C(C)(O)C(C)O)NC(=O)C5CSC(=N5)/C(=C/C)NC(=O)C(C(C)O)NC(=O)c5csc(n5)C3(CC2)NC(=O)C(C)NC(=O)C(=C)NC(=O)C(C)NC(=O)C(C(C)CC)NC2C=Cc3c(C(C)O)cc(nc3C2O)C(=O)OC4C)n1)C(N)=O` (stereo not drawn): the T/C under setting [2] is 34 % of control; the T/C (dose: 800.0 mg/kg/injection, schedule: Q01DX010 (sc), vehicle: Klucel (hydroxypropylcellulose) (HPC)) was 27 % of control and 49 % of control; the T/C (dose: 3200.0 mg/kg/injection, schedule: Q01DX010 (sc), vehicle: Klucel (hydroxypropylcellulose) (HPC)) was 50 % of control.
With `CC(=O)[C@]1(O)Cc2c(O)c3c(c(O)c2[C@@H](OC2CC(N)C(O)C(C)O2)C1)C(=O)c1c(O)cccc1C3=O` (stereo partly drawn), the T/C is 50 % of control (dose: 0.63 mg/kg/injection, schedule: Q04DX004 (sc), vehicle: saline) and 68 % of control (dose: 1.25 mg/kg/injection, schedule: Q04DX004 (sc), vehicle: saline).
For the compound `COC(=O)CC(N)C(=O)O` (stereo not drawn), the T/C by setting is: (dose: 225.0 mg/kg/injection, schedule: Q04DX004 (sc), vehicle: saline with Tween-80) 103 % of control; (dose: 450.0 mg/kg/injection, schedule: Q04DX004 (sc), vehicle: saline with Tween-80) 81 % of control; (dose: 900.0 mg/kg/injection, schedule: Q04DX004 (sc), vehicle: saline with Tween-80) 69 % of control; (dose: 1800.0 mg/kg/injection, schedule: Q04DX004 (sc), vehicle: saline with Tween-80) 35 % of control.
